This note sets out measurements from US20230416298A1, “PRODRUGS OF NEUROACTIVE STEROIDS” (Brii Biosciences, Inc., priority 2020, published 2023).

Broadly, the half-life is the time in which the quantity being followed falls by half.

The nature of one series: Liver S9 stability. It counts as in vitro ADME. As to conditions: human liver S9, 37° C.; for half-life at 1 μM: time points up to 60 min; for Stability in Human Liver S9 Formation of parent compound: Yes/No. On the procedure: Intermediate solution: Dilute 5 μL of compounds or controls (7-ethoxycoumarin) from stock solution (10 mM) with 495 μL MeOH (Conc.: 100 μM, 1% DMSO, 99% MeOH). Stop solution: Cold ACN (including 100 ng/mL Tolbutamide and Labetalol as internal standard). Add 2 μL test compound or control working solution/well to all plates (T0, T5, T10, T20, T30, T60, NCF60) except matrix blank. Add 600 μL/well stop solution (cold in 4° C., including 100 ng/mL Tolbutamide/100 ng/mL Labetalol) to terminate the TO plate, then put it on ice. Dispense 840 μL/well S9 solution to 96-well plate as reservoir according to plate map. Then add 100 μL/well to every plate by Apricot. Incubate S9 solution and compound at 37° C. for about 10 min except NCF60 and TO. After adding S9 solution and 98 μ LPB buffer to NCF60, incubate at 37° C. without pre-warming, start timer 1. After 60 min, add 600 μL/well stop solution to terminate the reaction. After pre-warming, dispense 760 μL/well cofactor solution to 96-well plate as reservoir according to plate map. Then add 98 μL/well to every plate by Apricot to start reaction. Incubate at 37° C., start timer 2, Add 600 μL/well stop solution (cold in 4° C., including 100 ng/mL Tolbutamide and Labetalol) to terminate the reaction. Samples are centrifuged at 4000 rpm for 20 min. While centrifuging, load 8×new 96-well plate with 300 μL HPLC water, then transfer 100 μL supernatant, mix with water for LC/MS/MS, transferred to Bioanalytical Services for LC-MS/MS analysis. Use equation of first order kinetics to calculate t1/2 and CL: Equation of first order kinetics: […]

A short description of a further series: Plasma stability. It is filed as in vitro ADME. The settings on record: 37° C.; for Stability in Human Plasma Formation of parent compound: 2 μM, Yes/No; for half-life at 2 μM: pooled plasma, pH 7.4, human plasma, time points 0, 10, 30, 60 and 120 min. The protocol: The pooled frozen plasma was thawed in a water bath at 37° C. prior to experiment. Plasma was centrifuged at 4000 rpm for 5 min and the clots were removed if any. The pH will be adjusted to 7.4±0.1 if required.
Preparation of test compounds and positive control (propantheline bromide): 1 mM intermediate solution was prepared by diluting 10 μL of the stock solution with 90 μL MeOH; 1 mM intermediate of positive control Propantheline was prepared by diluting 10 μL of the stock solution with 90 μL ultrapure water. 100 μM dosing solution was prepared by diluting 20 μL of the intermediate solution (1 mM) with 180 μL MeOH. 98 μL of blank plasma was spiked with 2 μL of dosing solution (100 μM) to achieve 2 μM of the final concentration in duplicate and samples were incubated at 37° C. in a water bath. At each time point (0,10, 30, 60 and 120 min), 400 μL of stop solution (0.1% FA in MeOH containing 200 ng/mL tolbutamide and 200 ng/mL Labetalol) was added to precipitate protein and mixed thoroughly. Centrifuged sample plates at 4,000 rpm for 10 min. An aliquot of supernatant (100 μL) was transferred from each well to another plates.
Data analysis: The % remaining of test compound after incubation in plasma was calculated using following equation:
% Remaining=[…]×(PAR at appointed incubation time/PAR at T0 time)
where PAR is the peak area ratio of analyte versus internal standard (IS) (LC/MS/MS mobile phase condition: 0.1% Formic Acid in Water/0.1% Formic Acid in Acetonitrile. The appointed incubation time points are TO (0 min), Tn (n=0, 10, 30, 60, 120 min).

`CC(=O)OCCCC(=O)O[C@@H]1CC[C@@]2(C)[C@@H](CC[C@@H]3[C@@H]2CC[C@]2(C)[C@@H](C(C)=O)CC[C@@H]32)C1` [Example 14, [(3R,5S,8R,9S,10S,13S,14S,17S)-17-acetyl-10,13-dimethyl-2,3,4,5,6,7,8,9,11,12,14,15,16,17-tetradecahydro-1H-cyclopenta[a]phenanthren-3-yl]4-acetoxybutanoate]: in “Liver S9 stability”, the half-life at 1 μM was below 50 min and the “Stability in Human Liver S9 Formation of parent compound” value (from here on “Stability in Human Liver S9 Formation”) was “No”. Also, in “Plasma stability”, the “Stability in Human Plasma Formation of parent compound” value (“Stability in Human Plasma Formation” below) is “No” and the half-life at 2 μM lay within 50 to 200 min.
As to `CC(=O)[C@H]1CC[C@H]2[C@@H]3CC[C@H]4C[C@H](OC(=O)OCCNC(=O)C(C)C)CC[C@]4(C)[C@H]3CC[C@]12C` [Example 24, [(3R,5S,8R,9S,10S,13S,14S,17S)-17-acetyl-10,13-dimethyl-2,3,4,5,6,7,8,9,11,12,14,15,16,17-tetradecahydro-1H-cyclopenta[a]phenanthren-3-yl] 2-(2-methylpropanoylamino)ethyl carbonate)], in “Liver S9 stability”, the half-life at 1 μM is below 50 min and the “Stability in Human Liver S9 Formation” value is reported as “No”. Also, in the series “Plasma stability”, the “Stability in Human Plasma Formation” value is “No” and the half-life at 2 μM is above 200 min.
For `CC(=O)[C@H]1CC[C@H]2[C@@H]3CC[C@H]4C[C@H](OC(=O)N(C)CCOC(=O)C(C)C)CC[C@]4(C)[C@H]3CC[C@]12C` [Example 23, 2-[[(3R,5S,8R,9S,10S,13S,14S,17S)-17-acetyl-10,13-dimethyl-2,3,4,5,6,7,8,9,11,12,14,15,16,17-tetradecahydro-1H-cyclopenta[a]phenanthren-3-yl]oxycarbonyl-methyl-amino]ethyl 2-methylpropanoate], in the series “Liver S9 stability”, the half-life at 1 μM was below 50 min and the “Stability in Human Liver S9 Formation” value is recorded as “Yes”. In “Plasma stability”, the “Stability in Human Plasma Formation” value is listed as “No” and the half-life at 2 μM is 50 to 200 min.
With `CC(=O)[C@H]1CC[C@H]2[C@@H]3CC[C@H]4C[C@H](OC(=O)OCCOC(=O)C(C)C)CC[C@]4(C)[C@H]3CC[C@]12C` [Example 19, 2-[[(3R,5S,8R,9S,10S,13S,14S,17S)-17-acetyl-10,13-dimethyl-2,3,4,5,6,7,8,9,11,12,14,15,16,17-tetradecahydro-1H-cyclopenta[a]phenanthren-3-yl]oxycarbonyloxy]ethyl 2-methylpropanoate], in “Liver S9 stability”, the half-life at 1 μM was below 50 min and the “Stability in Human Liver S9 Formation” value is given as “Yes”. In “Plasma stability”, the “Stability in Human Plasma Formation” value is given as “No” and the half-life at 2 μM fell in the range of 50 to 200 min.
The like results for `CCCCCC(=O)O[C@@H]1CC[C@@]2(C)[C@@H](CC[C@@H]3[C@@H]2CC[C@]2(C)[C@@H](C(C)=O)CC[C@@H]32)C1` [Example 1, [(3R,5S,8R,9S,10S,13S,14S,17S)-17-acetyl-10,13-dimethyl-2,3,4,5,6,7,8,9,11,12,14,15,16,17-tetradecahydro-1H-cyclopenta[a]phenanthren-3-yl]hexanoate] were, in that order, below 50 min, “No”, “No” and above 200 min.
The like results for `CC(=O)[C@H]1CC[C@H]2[C@@H]3CC[C@H]4C[C@H](OC(=O)OCc5oc(=O)oc5C)CC[C@]4(C)[C@H]3CC[C@]12C` [Example 20, [(3R,5S,8R,9S,10S,13S,14S,17S)-17-acetyl-10,13-dimethyl-2,3,4,5,6,7,8,9,11,12,14,15,16,17-tetradecahydro-1H-cyclopenta[a]phenanthren-3-yl](5-methyl-2-oxo-1,3-dioxol-4-yl)methyl carbonate] were, in that order, below 50 min, “Yes”, “Yes” and below 50 min.
Take `COC(=O)N(C)CCOC(=O)O[C@@H]1CC[C@@]2(C)[C@@H](CC[C@@H]3[C@@H]2CC[C@]2(C)[C@@H](C(C)=O)CC[C@@H]32)C1` [Example 27, [(3R,5S,8R,9S,10S,13S,14S,17S)-17-acetyl-10,13-dimethyl-2,3,4,5,6,7,8,9,11,12,14,15,16,17-tetradecahydro-1H-cyclopenta[a]phenanthren-3-yl]2-(methoxycarbonyl-N-methylamino)ethyl carbonate]: in “Liver S9 stability”, the half-life at 1 μM is below 50 min and the “Stability in Human Liver S9 Formation” value was “Yes”. For the same compound, in the series “Plasma stability”, the “Stability in Human Plasma Formation” value is given as “No” and the half-life at 2 μM is above 200 min.
With `CCCCCCC(=O)O[C@@H]1CC[C@@]2(C)[C@@H](CC[C@@H]3[C@@H]2CC[C@]2(C)[C@@H](C(C)=O)CC[C@@H]32)C1` [Example 2, [(3R,5S,8R,9S,10S,13S,14S,17S)-17-acetyl-10,13-dimethyl-2,3,4,5,6,7,8,9,11,12,14,15,16,17-tetradecahydro-1H-cyclopenta[a]phenanthren-3-yl]heptanoate], in “Liver S9 stability”, the half-life at 1 μM is below 50 min and the “Stability in Human Liver S9 Formation” value is reported as “No”. Further, in the series “Plasma stability”, the “Stability in Human Plasma Formation” value is “No” and the half-life at 2 μM was above 200 min.
On to `CC(=O)[C@H]1CC[C@H]2[C@@H]3CC[C@H]4C[C@H](OC(=O)CC5CCCC5)CC[C@]4(C)[C@H]3CC[C@]12C` [Example 8, [(3R,5S,8R,9S,10S,13S,14S,17S)-17-acetyl-10,13-dimethyl-2,3,4,5,6,7,8,9,11,12,14,15,16,17-tetradecahydro-1H-cyclopenta[a]phenanthren-3-yl] 3-cyclopentylacetate], for which, in “Liver S9 stability”, the half-life at 1 μM is below 50 min and the “Stability in Human Liver S9 Formation” value was “No”. Further, in the series “Plasma stability”, the “Stability in Human Plasma Formation” value was “No” and the half-life at 2 μM was above 200 min.
With `CC(=O)[C@H]1CC[C@H]2[C@@H]3CC[C@H]4C[C@H](OC(=O)OCCN(C)C(=O)C(C)C)CC[C@]4(C)[C@H]3CC[C@]12C` [Example 25, (3R,5S,8R,9S,10S,13S,14S,17S)-17-acetyl-10,13-dimethylhexadecahydro-1H-cycl penta[a]phenanthren-3-yl(2-(N-methylisobutyramido)ethyl) carbonate], in “Liver S9 stability”, the half-life at 1 μM was below 50 min and the “Stability in Human Liver S9 Formation” value is listed as “No”. In the series “Plasma stability”, the “Stability in Human Plasma Formation” value is recorded as “No” and the half-life at 2 μM was above 200 min.
As to `CC(=O)[C@H]1CC[C@H]2[C@@H]3CC[C@H]4C[C@H](OC(=O)NCCOC(=O)C(C)C)CC[C@]4(C)[C@H]3CC[C@]12C` [Example 22, 2-[[(3R,5S,8R,9S,10S,13S,14S,17S)-17-acetyl-10,13-dimethyl-2,3,4,5,6,7,8,9,11,12,14,15,16,17-tetradecahydro-1H-cyclopenta[a]phenanthren-3-yl]oxycarbonylamino]ethyl 2-methylpropanoate], in “Liver S9 stability”, the half-life at 1 μM is below 50 min and the “Stability in Human Liver S9 Formation” value is recorded as “Yes”. In the series “Plasma stability”, the “Stability in Human Plasma Formation” value is reported as “No” and the half-life at 2 μM is above 200 min.
For `CCCCOC(=O)O[C@@H]1CC[C@@]2(C)[C@@H](CC[C@@H]3[C@@H]2CC[C@]2(C)[C@@H](C(C)=O)CC[C@@H]32)C1` [Example 21, [(3R,5S,8R,9S,10S,13S,14S,17S)-17-acetyl-10,13-dimethyl-2,3,4,5,6,7,8,9,11,12,14,15,16,17-tetradecahydro-1H-cyclopenta[a]phenanthren-3-yl]butyl carbonate] the same measures were below 50 min, “Yes”, “No” and above 200 min.
